Key:
[1] = system: BCC cells; assay: Determination of intracellular ROS level (DCFH-DA); format: cell-based, human; details: BCC cells, 6f-UVA, DCFH-DA probe (FIG. 5A)
Description: (§1) (A) 6f-UVA induced ROS generation in BCC cells. Histogram of fluorescence vs cell count in BCC cells with various concentrations of 6f-UVA and stained with DCFH-DA. As a control, ROS was measured in the presence of catalase, a H2O2 scavenger. (B) The ΔΨmt of BCC cells after exposure to 6f-UVA. Cells were treated with 0, 2, and 4 μM Formula 6f for 4 h followed by 1 J/cm2 UVA irradiation, then stained with DiOC6 and analyzed immediately by flow cytometry as described under Materials and Methods. The number in M1 indicates the percentage of cells with reduced ΔΨmt. Approximately 10000 cells from each group were analyzed by flow cytometry. (C) Relative ATP levels were calculated as the percentage of the 0 μM level. Similar results were obtained in three independent experiments. *p<0.05, ** p<0.01 as compared with the control.
To evaluate intracellular reactive oxygen species (ROS) levels, 2′,7′-dichlorofluorescein diacetate (DCFH-DA, Molecular Probes) fluorescent dye was used to clarify this issue. The nonpolar DCFH-DA is converted to the polar derivative DCFH by esterases when it is taken up by the cell. DCFH is nonfluorescent but is rapidly oxidized to the highly fluorescent DCF by intracellular H2O2 or nitric oxide. […] The fluorescence of the samples was measured with a flow cytometer. The 2′,7′-dichlorofluorescein (DCF) data were recorded using FL-1 photomultiplier.

[2] = system: human dermal fibroblast cells; assay: Morphology observation and annexin V/PI binding assay on normal cells; format: cell-based; details: 4 μM for 4 h, 1 J/cm2 UVA (FIG. 4C)
Description: (§2) (A) The increased enzymatic activities of the caspase-3 in apoptotic were determined by colorimetric reaction. The cleavage of peptide by the caspase releases the chromophore pNA (p-nitroaniline), which can be quantified spectrophotometrically at a wavelength of 405 nm. (B) Dot plots for BCC cells treated with various concentrations of 6f-UVA and then stained with PI and an annexin V-FITC conjugate specifically detecting the exposure of PS residues at the cell surface. (C) Morphological observation and annexin V/PI double stain were used for the detection of fibroblasts apoptosis. Approximately 10000 cells from each group were analyzed by flow cytometry. Data shown are of a representative experiment repeated three times with similar results. ** p<0.01 as compared with the control.
(§3) To assess the simultaneous observation of early phase of apoptotic and necrotic features, BCC cells were treated with various concentrations (0-4 μM) of Formula 6f for 4 h before irradiation. Twenty-four hours after irradiation, cells were harvested by trypsinization and centrifugation and measured by cytometry by adding annexin V-FITC to […] per sample according to the manufacturer's specifications (Bender MedSystems, Vienna, Austria). Simultaneously, the cells were stained with PI. Flow cytometry data were analyzed by the WinMDI software.
BCC or fibroblasts (5×10^5 cells/well) seeded on 6 well plate. […]

[3] = system: ERK; assay: Western blot analysis of MAPK phosphorylation: ERK; format: cell-based, human; details: BCC cells, 6f-UVA at 4 μM, compared with untreated control (FIG. 6A)
Description: (§4) (A) After exposure to different concentration of 6f-UVA, cell lysates were collected and immunoblotted with specific antibodies as indicated. For the internal control, the same amounts of protein extract were also probed with antibody against actin. (B) As a control, the expression level of p-ERK was determined in the presence of oligomycin (25 μM) and ATP (1×10^−4M)
Total cell extracts from cultured BCC cells were obtained by lysing the cells in ice-cold RIPA buffer (1×PBS, 1% NP-40, 0.5% sodium deoxycholate, 0.1% SDS) containing 100 μg/mL PMSF, 2 μg/mL aprotinin, 2 μg/mL leupeptin and 100 μg/mL NaF. After centrifugation at 14,000 g for 30 min, protein in the supernatants was quantified by Bradford method (Bio-Rad). Forty micrograms of protein per lane was applied in 10% SDS-poly-acrylamide gel. After electrophoresis, protein was transferred from the gel to polyvinylidene difluoride (PVDF) membrane (Millipore, Bedford, Mass.). The membranes were blocked at room temperature for 1 h in PBS+0.1% Tween 20 (PBS-T) containing 5% skim milk. After being briefly rinsed with PBS-T, the blots were probed with respective primary antibodies at room temperature for 2 h or at 4° C. overnight. Rabbit polyclonal antibodies against JNK (46 kDa), p38 (38 kDa), ERK (42, 44 kDa), and mouse monoclonal antibody against p-JNK, p-p38, p-ERK were purchased from Santa Cruz Biotechnology (Santa Cruz, Calif.). Mouse monoclonal antibody against actin was purchased from Chemicon Int. Inc. (Temecula, Calif.). For the blocking test, 25 μM oligomycin (Sigma, a mitochondria-specific F0F1 ATP synthase inhibitor) or 1×10^−4M ATP (Sigma) was added to the media 30 min before treated with 6f-UVA, respectively. The membrane was incubated with the corresponding horseradish peroxidase-labeled secondary antibody (Santa Cruz Biotechnology) at room temperature for 1 h. […] The relative amounts of specific proteins were quantified by densitometry scanning of X-ray films and analyzed by Eagle Eye Image System (Stratagene, La Jolla, Calif.)

[4] = system: BCC cells; assay: Assessment of mitochondrial membrane potential (DiOC6); format: cell-based, human; details: dosages equal to or greater than 2 μM, 1 J/cm^2 UVA (FIG. 5B)
Description: as §1
BCC cells were cultured in 35-mm dishes and allowed to reach exponential growth for 24 h before treatment. Cells were pretreated with […] Formula 6f for 4 h before 1 J/cm^2 UVA irradiation. The medium was removed and the adherent cells trypsinized. […] The samples were analyzed immediately for fluorescence (FL-1 detector, filter 530/30 nm band pass) on a FACScan flow cytometer (Elite ESP, Beckman Coulter, Brea, Calif.). Histograms were analyzed using Windows Multiple Document interface software (WinMDI).

[5] = system: JNK MAPK; assay: Western blot analysis of MAPK phosphorylation: JNK; format: cell-based, human; details: BCC cells, 6f-UVA (FIG. 6A)
Description: as §4
Total cell extracts from cultured BCC cells were obtained by lysing the cells in ice-cold RIPA buffer (1×PBS, 1% NP-40, 0.5% sodium deoxycholate, 0.1% SDS) containing 100 μg/mL PMSF, 2 μg/mL aprotinin, 2 μg/mL leupeptin and 100 μg/mL NaF. After centrifugation at 14,000 g for 30 min, protein in the supernatants was quantified by Bradford method (Bio-Rad). Forty micrograms of protein per lane was applied in 10% SDS-poly-acrylamide gel. After electrophoresis, protein was transferred from the gel to polyvinylidene difluoride (PVDF) membrane (Millipore, Bedford, Mass.). The membranes were blocked at room temperature for 1 h in PBS+0.1% Tween 20 (PBS-T) containing 5% skim milk. After being briefly rinsed with PBS-T, the blots were probed with respective primary antibodies at room temperature for 2 h or at 4° C. overnight. […] The relative amounts of specific proteins were quantified by densitometry scanning of X-ray films and analyzed by Eagle Eye Image System (Stratagene, La Jolla, Calif.)

[6] = system: BCC cells; assay: Annexin V and PI binding assay; format: cell-based, human; details: for apoptotic cells (annexin V+/PI−): BCC cells, 1 J/cm^2 UVA
Description: as §2, §3

Structure (SMILES): Nc1ccc(-c2nc3ccc(C(F)(F)F)cc3s2)cc1 [Formula 6f, 2-(4-Aminophenyl)-6-trifluoromethylbenzothiazole]
- intracellular H2O2 levels [1]: significantly increased
- apoptotic activity on normal cells [2]: no significant apoptotic effect
- phosphorylation of ERK (p-ERK) [3]: increased
- mitochondrial membrane potential (ΔΨmt) [4]: significant decline
- phosphorylation of JNK MAPK [5]: did not stimulate the phosphorylation
- necrotic cells (annexin V+/PI+) ([6]; BCC cells, 0, 2, and 4 μM, 1 J/cm^2 UVA (FIG. 4B)): no obvious change
- apoptotic cells (annexin V+/PI−) ([6]; 2 μM): 19.5%
- apoptotic cells (annexin V+/PI−) ([6]; 4 μM): 27.5%

From US8592603B2, “Synthesis of 2-(4-aminophenyl) benzothiazole derivatives and use thereof” (Kaohsiung Medical University, priority 2011, dated 2013)
